US20220089521A1, “ETHYLENEDIAMINE COMPOUND AND USE THEREOF” (priority 2018, published 2022)
Values after ≈ are worked out from the molar mass of the structure shown. Values joined by “and” are separate entries in the source; they are usually repeats but may differ in a detail not shown here. Equal values may be shown once. Where a name gives a salt, the structure may show the parent alone. Read-outs that look alike come from different tables or passages of the source.

Legend:
[1] = tested on: Mycobacterium tuberculosis standard strain H37Rv; test: Microplate Alamar Blue Assay (MABA), minimum inhibitory concentration; type: cell-based; settings: for MIC: Mycobacterium tuberculosis; for in vitro anti-tuberculosis activity (in words): experimental data in Table 1
[2] = H37Rv, 7H9 liquid medium, MABA, lowest drug concentration that prevented the color change (blue to pink), read-out: MIC

Row | Compound | MIC ([1]; H37RV) | in vitro anti-tuberculosis activity (in words) [1] | melting point | MIC [1, 2]
1 | CC(C)=CCC/C(C)=C/CNCCNC(c1ccccc1)c1cccnc1 (stereo not drawn) [XHJ-5-8, N-(phenyl-pyridin-3-yl-methyl)-N′-(3,7-dimethyl-oct-2,6-dienyl)-ethane-1,2-diamine] | 16 µg/mL (≈ 44 µM) | better activity |  | 
2 | CCCCCCNCCNC1C2CC3CC(C2)CC1C3 (stereo not drawn) (as salt: hydrochloride) [XHJ-5-5, N-(adamantan-2-yl)-N′-hexyl-ethane-1,2-diamine dihydrochloride] |  |  | 212 to 216 °C | 
3 | CC(C)=CCC/C(C)=C/CNCCNC(c1ccccn1)c1ccccn1 [XHJ-5-14, N-(dipyridin-2-yl-methyl)-N′-(3,7-dimethyl-oct-2,6-dienyl)-ethane-1,2-diamine] | 4 µg/mL (≈ 11 µM) | better activity |  | 
4 | CC(C)=CCC/C(C)=C/C(=O)NCCNC1C2CC3CC(C2)CC1C3.Cl (stereo not drawn) [XHJ-2-32, 3,7-dimethyl-oct-2,6-dienoic acid [2-(adamantan-2-yl-amino)ethyl]amide hydrochloride] | 7.75 µg/mL | good activity | 150 to 164 °C | 
5 | CCCCCCNCCNC1C2CC3CC(C2)CC1C3 (stereo not drawn) [XHJ-5-5, N-(adamantan-2-yl)-N′-hexyl-ethane-1,2-diamine dihydrochloride] | 0.982 µg/mL | better activity |  | 
6 | CC(C)=CCC/C(C)=C/CNCC(=O)NC1C2CC3CC(C2)CC1C3.Cl (stereo not drawn) [XHJ-2-37, N-adamantan-2-yl-2-(3,7-dimethyl-oct-2,6-dienylamino)-acetamide hydrochloride] | < 0.5 µg/mL | good activity | 168 to 172 °C | 
7 | C(CNC1C2CC3CC(C2)CC1C3)NC1CC1 (stereo not drawn) [XHJ-5-18, N-(adamantan-2-yl)-N′-cyclopropyl-ethane-1,2-diamine] |  |  | 197 to 200 °C | > 32 µg/mL
8 | CC(C)=CCC/C(C)=C/CN(CCNC1C2CC3CC(C2)CC1C3)C(=O)CCc1c[nH]c2ccccc12 (stereo not drawn) [XHJ-3-27, N-adamantan-2-yl-N′,N′-(3-indolylpropionyl)-(3,7-dimethyl-oct-2,6-dienyl)-ethane-1,2-diamine] | 1.96 µg/mL (≈ 3.91 µM) | good activity |  | 
9 | CCCCCCCCNCCNC1C2CC3CC(C2)CC1C3 (stereo not drawn) (as salt: hydrochloride) [XHJ-5-3, N-(adamantan-2-yl)-N′-octyl-ethane-1,2-diamine dihydrochloride] |  |  | 224 to 226 °C | 
10 | CCS(=O)(=O)NCCNC1C2CC3CC(C2)CC1C3 (stereo not drawn) [XHJ-3-46, N-(adamantan-2-yl)-N′-ethylsulfonyl-ethane-1,2-diamine] |  |  |  | > 32 µg/mL
11 | COc1cc(C(=O)N(C/C=C(\C)CCC=C(C)C)CCNC2C3CC4CC(C3)CC2C4)cc(OC)c1OC (stereo not drawn) [XHJ-3-29, N-adamantan-2-yl-N′,N′-(3,4,5-trimethoxybenzoyl)-(3,7-dimethyl-oct-2,6-dienyl)-ethane-1,2-diamine] | 3.91 µg/mL (≈ 7.45 µM) | good activity |  | 
12 | CCCCCCCCCCC(=O)N(C/C=C(\C)CCC=C(C)C)CCNC1C2CC3CC(C2)CC1C3 (stereo not drawn) [XHJ-3-31, N-adamantan-2-yl-N′,N′-undecanoyl-(3,7-dimethyl-oct-2,6-dienyl)-ethane-1,2-diamine] | 2.84 µg/mL (≈ 5.7 µM) | good activity |  | 
13 | CC(C)=CCC/C(C)=C/CN(CCN(C(=O)c1c[nH]c2ccccc12)C1C2CC3CC(C2)CC1C3)C(=O)c1c[nH]c2ccccc12 (stereo not drawn) [XHJ-3-15, N,N-adamantan-2-yl-(3-indolylformyl)-N′,N′-(3,7-dimethyl-oct-2,6-dienyl)-(3-indolylformyl)-ethane-1,2-diamine] | > 32 µg/mL |  | 248 to 252 °C | 
14 | CC(C)=CCC/C(C)=C/CN(CCN(Cc1ccccc1)C1C2CC3CC(C2)CC1C3)Cc1ccccc1 (stereo not drawn) [XHJ-4-11, N,N-(adamantan-2-yl)-benzyl-N′,N′-(3,7-dimethyl-oct-2,6-dienyl)-benzyl-ethane-1,2-diamine] | 30.8 µg/mL (≈ 60.3 µM) |  |  | 
15 | NNC(=O)c1ccncc1 [INH, isoniazid, reference compound] |  |  |  | 0.05 µg/mL (≈ 0.365 µM)
16 | CC(C)=CCC/C(C)=C/CN(CCN)S(=O)(=O)c1ccc(C)cc1.Cl [XHJ-2-45, N-geranyl-N-(2-aminoethyl)-p-toluenesulfonamide hydrochloride] |  |  | 134 to 137 °C | 31.5 µg/mL
17 | CC(C)=CCC/C(C)=C/CN(CCN)C1C2CC3CC(C2)CC1C3 (stereo not drawn) [XHJ-3-45, N,N-(adamantan-2-yl)-(3,7-dimethyl-oct-2,6-dienyl)-ethane-1,2-diamine] | < 0.5 µg/mL | better activity | 102 to 104 °C | 
18 | CCCCCCCCN(C/C=C(\C)CCC=C(C)C)CCN(CCCCCCCC)C1C2CC3CC(C2)CC1C3 (stereo not drawn) [XHJ-4-15, N,N-(adamantan-2-yl)-octyl-N′,N′-(3,7-dimethyl-oct-2,6-dienyl)-octyl-ethane-1,2-diamine] | > 32 µg/mL |  |  | 
19 | CCS(=O)(=O)N(C/C=C(\C)CCC=C(C)C)CCN.Cl [XHJ-2-39, N-geranyl-N-(2-aminoethyl)ethylsulfonamide hydrochloride] |  |  | 103 to 106 °C | > 32 µg/mL
20 | CC(C)=CCC/C(C)=C/CN(CCNC1C2CC3CC(C2)CC1C3)S(=O)(=O)c1ccc(C)cc1.Cl (stereo not drawn) [XHJ-3-3, N-adamantan-2-yl-N′,N′-p-toluenesulfonyl-(3,7-dimethyl-oct-2,6-dienyl)-ethane-1,2-diamine hydrochloride] | 3.76 µg/mL | good activity | 179 to 182 °C | 
21 | CC(C)=CCC/C(C)=C/CN(CCNC1C2CC3CC(C2)CC1C3)C(=O)/C=C(\C)CCC=C(C)C (stereo not drawn) [XHJ-3-11, N-adamantan-2-yl-N′,N′-(3,7-dimethyl-oct-2,6-dienyl)-(3,7-dimethyl-oct-2,6-dienoyl)-ethane-1,2-diamine] | > 32 µg/mL |  |  | 
22 | CCS(=O)(=O)N(C/C=C(\C)CCC=C(C)C)CCNC1C2CC3CC(C2)CC1C3.Cl (stereo not drawn) [XHJ-3-1, N-adamantan-2-yl-N′,N′-ethylsulfonyl-(3,7-dimethyl-oct-2,6-dienyl)-ethane-1,2-diamine hydrochloride] | 6.96 µg/mL | good activity | 108 to 112 °C and 103 to 106 °C | 
23 | CO[C@H]1/C=C/O[C@@]2(C)Oc3c(C)c(O)c4c(O)c(c(/C=N/N5CCN(C)CC5)c(O)c4c3C2=O)NC(=O)/C(C)=C\C=C\[C@H](C)[C@H](O)[C@@H](C)[C@@H](O)[C@@H](C)[C@H](OC(C)=O)[C@@H]1C [RFP, rifampin, reference compound] |  |  |  | 0.048 µg/mL (≈ 0.0583 µM)
24 | CCCCCCCCNCCNC1C2CC3CC(C2)CC1C3 (stereo not drawn) [XHJ-5-3, N-(adamantan-2-yl)-N′-octyl-ethane-1,2-diamine dihydrochloride] | 0.986 µg/mL | better activity |  | 
